Test systems include NCI-H23; RXF 393; SNB-19; SK-OV-3; UACC-62; HT-29; OVCAR-4; EKVX; HOP-62; CAKI-1; SW-620; UACC-257; SR; OVCAR-5; SN12C; NCI-H522; Malme-3M.
Holding throughout (experiment): NCI anticancer screen, dose series, 48 h

Structures are written as SMILES.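 Test compounds were applied to cells in 96-well plates for 48 hours at 5 doses. At the GI50, growth is halved.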 Active and inactive are the calls of the source. No stated cut-off is given here; in the data, active = GI50 up to about 1.1 µM and inactive = higher.

Consider `CCOC(=O)c1csc(NC(=O)CN2CCOCC2)n1`, for which the GI50 in the test on NCI-H23, in the test with RXF 393, in the test on SNB-19, in the test on SK-OV-3, in the test with UACC-62 and in the test with HT-29 was > 100 µM (inactive) in each case. The GI50 in the test on OVCAR-4, with EKVX, with HOP-62, in the test with CAKI-1, in the test with SW-620 and in the test on UACC-257 was > 100 µM (inactive) each time. Further, the GI50 in the test with SR and in the test with OVCAR-5 was > 100 µM (inactive) throughout.

In the case of `Cc1c(OCc2cccc3ccccc23)ccc2c(=O)cc(SCCN3CCOCC3)oc12`, the GI50 was > 100 µM (inactive) in the test on NCI-H23; > 100 µM (inactive) in the test on RXF 393; > 100 µM (inactive) with SNB-19; > 100 µM (inactive) in the test on UACC-62; > 100 µM (inactive) with HT-29; 38.5 µM (inactive) in the test on OVCAR-4. In addition, the GI50 is > 100 µM (inactive) with SN12C; > 100 µM (inactive) in the test on EKVX; > 100 µM (inactive) with HOP-62; > 100 µM (inactive) in the test on CAKI-1; > 100 µM (inactive) in the test with SW-620; 90.6 µM (inactive) with NCI-H522. Also, the GI50 in the test with UACC-257 is > 100 µM (inactive); in the test with SR, > 100 µM (inactive); with OVCAR-5 it was 78.2 µM (inactive).

For the compound `Cn1c(=O)c2c(nc(Nc3ccc(Cl)cc3)n3c(=O)n(-c4ccccc4)c(=O)n23)n(C)c1=O`, the GI50 in the test on NCI-H23, in the test with RXF 393, with SNB-19, in the test with UACC-62, in the test with HT-29 and in the test with OVCAR-4 was > 100 µM (inactive) throughout. Further, the GI50 in the test with SN12C, in the test with EKVX, in the test on HOP-62, in the test with CAKI-1, with SW-620 and in the test with NCI-H522 was > 100 µM (inactive) in each case. In addition, the GI50 with UACC-257, in the test with SR and in the test with OVCAR-5 was > 100 µM (inactive) each time.

Turning to `CCC(=O)NI1OC(=O)c2ccccc21`, the GI50 in the test with NCI-H23, in the test on RXF 393, in the test on SK-OV-3, in the test on UACC-62, in the test with HT-29 and with OVCAR-4 was > 100 µM (inactive) each time. The GI50 with SN12C is > 100 µM (inactive); with EKVX, > 100 µM (inactive); in the test with HOP-62, > 100 µM (inactive); in the test on CAKI-1 it was 21.6 µM (inactive); with SW-620 it was > 100 µM (inactive); in the test on NCI-H522, 15.9 µM (inactive). The results for the GI50 in the test on UACC-257, in the test on SR and in the test with OVCAR-5 were > 100 µM (inactive), 36.9 µM (inactive) and > 100 µM (inactive), respectively.

In the case of `COC(=O)/C=C(C)/C=C\COC1CCCCO1` (stereo not drawn), the GI50 in the test on NCI-H23, in the test with RXF 393, with SNB-19, in the test with SK-OV-3, in the test with UACC-62 and in the test with OVCAR-4 was > 100 µM (inactive) in each case. The GI50 in the test with SN12C, in the test with Malme-3M, in the test on EKVX, in the test on HOP-62, with CAKI-1 and in the test with SW-620 was > 100 µM (inactive) throughout. The GI50 in the test on NCI-H522, in the test on UACC-257, with SR and in the test on OVCAR-5 was > 100 µM (inactive) each time.

Consider `Nc1c(-c2ccccc2)c2ccc([N+](=O)[O-])cc2c(=O)n1-c1cccc(C(=O)O)c1`, for which the GI50 in the test with NCI-H23, in the test on RXF 393, with SNB-19, with SK-OV-3, with UACC-62 and with HT-29 was > 100 µM (inactive) throughout. The GI50 in the test with OVCAR-4, in the test with EKVX, with HOP-62, with CAKI-1, in the test with SW-620 and in the test on NCI-H522 was > 100 µM (inactive) in each case. Besides, the GI50 in the test on UACC-257, in the test on SR and with OVCAR-5 was > 100 µM (inactive) in each case.

For the compound `CC(C)=CC1C(COC(=O)c2cc3c(cc2Cl)OCO3)C1(C)C` (stereo not drawn), the GI50 with NCI-H23 was 33.3 µM (inactive); in the test with RXF 393 it was 20.8 µM (inactive); with SNB-19, 95.7 µM (inactive); in the test with UACC-62, 36.1 µM (inactive); in the test with HT-29 it was 33 µM (inactive); with OVCAR-4 it was 28.4 µM (inactive). Further, the GI50 with SN12C is 39.5 µM (inactive); with Malme-3M, 14.2 µM (inactive); with EKVX, 30.4 µM (inactive); in the test with HOP-62, 38.3 µM (inactive); in the test with CAKI-1 it was 22.7 µM (inactive); in the test on SW-620 it was 33.1 µM (inactive). Besides, the GI50 with NCI-H522 is 18 µM (inactive); in the test on UACC-257 it was 40.3 µM (inactive); in the test on SR it was 21.3 µM (inactive); in the test with OVCAR-5 it was 60.4 µM (inactive).

Take `CCOP(=O)(O)C1C(CO)OC(n2ccc(=O)[nH]c2=O)C1O` (stereo not drawn): the GI50 in the test with RXF 393, with SNB-19, in the test with UACC-62, in the test with HT-29, in the test on OVCAR-4 and in the test on SN12C was > 100 µM (inactive) in each case. The GI50 in the test with Malme-3M, in the test with EKVX, with HOP-62, in the test with CAKI-1, with SW-620 and in the test with NCI-H522 was > 100 µM (inactive) throughout. The GI50 in the test on UACC-257 and in the test on SR was > 100 µM (inactive) in each case.

On to `O=C(O)C1C(=O)Oc2c(cccc2[N+](=O)[O-])C1O` (stereo not drawn), for which the GI50 in the test with NCI-H23, in the test with RXF 393, with SNB-19, in the test with UACC-62, in the test with HT-29 and in the test on OVCAR-4 was > 100 µM (inactive) in each case. Besides, the GI50 in the test with SN12C, with Malme-3M, in the test on EKVX, in the test on HOP-62, in the test with CAKI-1 and in the test on SW-620 was > 100 µM (inactive) throughout. Moreover, the GI50 in the test on NCI-H522, with UACC-257, in the test on SR and in the test with OVCAR-5 was > 100 µM (inactive) in each case.

For `S=C(NN=C1NCCCCN1)Nc1ccc(Cl)cc1`, the GI50 was 18.5 µM (inactive) in the test with NCI-H23; > 100 µM (inactive) with RXF 393; 77.6 µM (inactive) with SNB-19; 15.1 µM (inactive) with SK-OV-3; 4.52 µM (inactive) in the test with UACC-62; 16.2 µM (inactive) in the test on HT-29. The GI50 was 38.9 µM (inactive) with OVCAR-4; 17.1 µM (inactive) in the test with Malme-3M; 31.9 µM (inactive) in the test with EKVX; 11 µM (inactive) in the test on HOP-62; < 0.01 µM (active) with CAKI-1; 25.4 µM (inactive) in the test with SW-620. For the same compound, the GI50 is 12.9 µM (inactive) in the test with NCI-H522, 14.8 µM (inactive) with UACC-257, 11.8 µM (inactive) in the test with SR and 14.8 µM (inactive) with OVCAR-5.

Turning to `O=C(C/C(=N/O)C(F)(F)F)c1cccs1`, the GI50 in the test on NCI-H23 was > 100 µM (inactive); in the test with RXF 393 it was > 100 µM (inactive); in the test with SNB-19, 50 µM (inactive); in the test on SK-OV-3 it was 76.2 µM (inactive); in the test with UACC-62, > 100 µM (inactive); in the test on HT-29 it was > 100 µM (inactive). Moreover, the GI50 in the test with OVCAR-4, in the test with SN12C, in the test on EKVX, in the test on HOP-62, in the test with CAKI-1 and in the test with SW-620 was > 100 µM (inactive) throughout. Also, the GI50 in the test on UACC-257, with SR and with OVCAR-5 was > 100 µM (inactive) throughout.

With `COc1ccc(/N=C2/C(=N/c3ccc(OC)cc3)N(c3ccccc3)C(=S)N2N=C=C2Sc3ccccc3N2C)cc1`, the GI50 with NCI-H23 was 9.27 µM (inactive); in the test with RXF 393, 3.75 µM (inactive); in the test on SNB-19, > 100 µM (inactive); in the test on SK-OV-3, > 100 µM (inactive); in the test with UACC-62 it was > 100 µM (inactive); in the test on HT-29 it was > 100 µM (inactive). In addition, the GI50 is > 100 µM (inactive) with SN12C; > 100 µM (inactive) in the test with Malme-3M; > 100 µM (inactive) with EKVX; 52.5 µM (inactive) in the test on HOP-62; > 100 µM (inactive) in the test with CAKI-1; > 100 µM (inactive) in the test with SW-620. Further, the GI50 with NCI-H522, in the test on UACC-257, with SR and in the test on OVCAR-5 was > 100 µM (inactive) in each case.

As for `COc1ccc(-c2csc3c2-n2cccc2C3=O)cc1`, the GI50 with NCI-H23 is 0.438 µM (active); in the test with RXF 393, 0.07 µM (active); with SNB-19 it was 0.0745 µM (active); in the test on SK-OV-3, 0.216 µM (active); in the test with UACC-62, 0.0269 µM (active); in the test with HT-29, 0.028 µM (active). In addition, the GI50 with OVCAR-4 is 2.07 µM (inactive); in the test with SN12C, 0.0885 µM (active); in the test on Malme-3M, 28.8 µM (inactive); in the test with EKVX, 0.767 µM (active); in the test with HOP-62, 0.0656 µM (active); in the test with CAKI-1, 0.268 µM (active). Further, the GI50 was < 0.0232 µM (active) in the test with SW-620, 0.0206 µM (active) in the test with SR and 34 µM (inactive) in the test with OVCAR-5.
